In patent publication US20130053336A1, “TREATMENT OF CHLAMYDIACEAE INFECTIONS BY MEANS OF BETA-LACTAMS” (priority 2010, published 2013):
Converted amounts (≈) assume the structure as drawn. Structures can show the parent of a compound that is named as a salt. Where two headings read alike, the source gives them in different places.

B1: IFN-γ: Recombinant human IFN-γ, a well-known inducer of persistence (protein, UniProt P01579 24-161, looked up)
Interferon gamma: QDPYVKEAENLKKYFNAGHSDVADNGTLFLGILKNWKEESDRKIMQSQIVSFYFKLFKNFKDDQSIQKSVETIKEDMNVKFFNSNKKKRDDFEKLTNYSVTDLNVQRKAIHELIQVMAELSPAAKTGKRKRSQMLFRG

Tests used:
Type in all cases: cell-based
[1] = system: Chlamydia trachomatis serovar L2; assay: Minimum bactericidal concentration (titration of infectious ability of bacteria from treated infected cells)
Procedure: (§1) It was first sought to verify whether other molecules of the β-lactam family could induce in vitro the same abnormal and noninfectious forms of Chlamydia trachomatis as that produced in the presence of penicillin G. Titration experiments were performed on the infectious ability of bacteria from infected cells treated with different β-lactams. Cytotoxicity and minimum bactericidal concentration (MBC) were determined for each of these molecules. It was also verified whether all of these β-lactams have bactericidal action on persistent forms of Chlamydia trachomatis produced in vitro under the effect of IFN-γ.

[2] = system: Cells Infected with Chlamydia trachomatis serovar L2; assay: Cytotoxicity of β-lactams
Procedure: as §1

[3] = system: Chlamydia trachomatis L2 serovar 16S rRNA; assay: 16S rRNA expression by RT-PCR; conditions: 100 hpi
Source text: HeLa cells were infected with the Chlamydia trachomatis L2 serovar and treated or not treated with penicillin G at 3 hpi. At 100 hpi, the cells were collected and the RNA extracted carefully to avoid DNA contamination. Half of the isolated RNA was used for reverse transcription. The RNA and cDNA were amplified by PCR with primers for 16S (bacterial) and 18S (eukaryotic) rRNA in order to study bacterial activity and to verify cDNA quality and quantity. PCR of the RNA is used to verify the absence of DNA contamination. It also indicates the absence of contaminant in the PCR. […] Roughly 1×10^5 HeLa cells were infected and exposed or not exposed to penicillin G, as described above. At 100 hpi, total RNA were isolated using the RNeasy Plus Mini Kit (Qiagen, Hilden, Germany). The samples were treated with DNase I for 1 hour at 37° C. The enzyme was then denatured at 70° C. for 10 min. The RNA were reverse-transcribed into cDNA using random hexamer primers and AffinityScript Multiple Temperature Reverse Transcriptase (Agilent, Santa Clara, Calif., USA) and by following the manufacturer's instructions for RT-PCR. cDNA and RNA were amplified by PCR with Tag Polymerase (Invitrogen, Carlsbad, Calif., USA) in order to verify the absence of DNA contamination. The primers used to amplify 16S rRNA are: A semi-quantitative analysis of the PCR products was carried out by agarose gel electrophoresis and UV detection.

[4] = system: Chlamydia trachomatis serovar L2; assay: Development and morphology of inclusions in infected HeLa cells (microscopy); conditions: infected HeLa cells, videomicroscopy / culture for 4 days
Procedure: HeLa cells were infected with Chlamydia trachomatis serovar L2 and treated with IFN-γ (100 ng/ml), penicillin G (100 U/ml) or gentamicin ([…]). At various times after infection (hours post-infection (hpi)), the cells were fixed and stained with an antibody against Chlamydia sp. (green in the original figure) and with Hoechst (blue in the original figure). The infected HeLa cells treated with penicillin G have abnormal bodies that grow and that are phenotypically quite different from those formed during treatment with IFN-γ. The bodies formed with penicillin G are appreciably different from “classic” persistent bodies. To examine the effects of penicillin G on cell infection with Chlamydia, the host cells were cultivated up to 70% confluence without antibiotics, and then were infected with C. trachomatis strain […]. muridarum at 1 IFU. The infections were carried out at 37° C. for 90 minutes with centrifugation, followed by a washing of extracellular bacteria. At 3 hpi, after the washings, the culture medium was replaced with medium containing either 25 μg/ml gentamicin or 1-100 IU/ml penicillin G. At regular intervals after treatment with penicillin G, the cultures were either fixed in 4% neutral buffered PFA for 30 minutes to be prepared for confocal microscopy, or collected to determine the infectivity of the progeny bacteria, according to the previously described method (Verbeke, P. et al. PLoS Pathog 2:e45, 2006). HeLa cells cultured in monolayers on slides were infected with serovar L2 with an IFU of 1, as described above (Verbeke, P. et al. PLoS Pathog 2:e45, 2006). Three hours after the infection, the medium was removed and replaced with culture medium containing 500 IU/ml (final concentration) recombinant human IFN-γ.

[5] = system: Chlamydia trachomatis inclusions; assay: Fusion of lysosomes with inclusions (cathepsin D, LysoTracker, confocal microscopy); conditions: HeLa, 24 hpi
[6] = minimum bactericidal concentration, read-out: MBC
[7] = second line of the MBC cell, read-out: MBC, bound in parentheses below the value
[8] = printed as a concentration bound

Row | Molecule | MBC [1, 6] [µM] | MBC [1, 7] [µM] | Cytotox. ([2]; given as 0) | further results
1 | CC1(C)S[C@@H]2[C@H](NC(=O)[C@H](N)c3ccc(O)cc3)C(=O)N2[C@H]1C(=O)O [Amoxicillin trihydrate] | 0.3 | > 0.1 | 0 | –
2 | CC1=C(C(=O)O)N2C(=O)[C@@H](NC(=O)[C@H](N)c3ccc(O)cc3)[C@H]2SC1 [Cefadroxil] | 10 (≈ 3.63 µg/mL) | > 3 | 0 | –
3 | C=CC1=C(C(=O)O)N2C(=O)[C@@H](NC(=O)/C(=N\OCC(=O)O)c3csc(N)n3)[C@H]2SC1 [Cefixime trihydrate] | 300 | > 100 | – | Cytotox. [2, 8]: >400 µM
4 | Cc1onc(-c2ccccc2Cl)c1C(=O)N[C@@H]1C(=O)N2[C@@H]1SC(C)(C)[C@@H]2C(=O)O [Cloxacillin sodium salt hydrate] | 3 | > 1 | 0 | –
5 | C[C@@H](O)[C@H]1C(=O)N2C(C(=O)O)=C(SCCN=CN)C[C@H]12 [Imipenem monohydrate] | 300 | > 100 | 0 | –
6 | CC1(C)S[C@@H]2[C@H](/N=C/N3CCCCCC3)C(=O)N2[C@H]1C(=O)O [Mecillinam] | 3 (≈ 0.976 µg/mL) | > 1 | 0 | –
7 | CC1(C)S[C@@H]2[C@H](NC(=O)COc3ccccc3)C(=O)N2[C@H]1C(=O)O [Penicillin V potassium salt] | 0.3 | > 0.1 | 0 | –
8 | O=C(O)[C@H]1/C(=C/CO)O[C@@H]2CC(=O)N21 [Potassium clavulanate] | 1 | > 0.3 | – | Cytotox. [2, 8]: >50 µM
9 | CC1(C)[C@H](C(=O)O)N2C(=O)C[C@H]2S1(=O)=O [Sulbactam sodium] | – | – | – | MBC [1]: 10 µM; MBC ([1]; read-out: MBC, bound in parentheses below the value): > 3 µM
10 | C[C@]1(Cn2ccnn2)[C@H](C(=O)O)N2C(=O)C[C@H]2S1(=O)=O [Tazobactam sodium salt] | 30 | > 10 | 0 | –
11 | gentamicin | – | – | – | 16S rRNA expression in infected cells [3]: amplified
12 | B1 | – | – | – | growth of the bacterial inclusions [4]: remains constant; 16S rRNA expression in infected cells [3]: amplified; localization of cathepsin D in inclusions [5]: excluded from normal and persistent inclusions
